Legend:
Details in all cases: 72 h
[1] = tested on: BV-173
How it was run: (§1)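 The IC50 was derived from log-logistic dose–response fitting. Each of fifteen myeloid leukaemia cell lines, seeded in RPMI 1640 within its linear growth range, was exposed in 384-well plates to five tenfold doses (1 to 10,000 nM) in duplicate for 72 h at 37 °C and 5% CO2. Luminescent ATP viability readings were normalised to vehicle and to a positive control at 10 µM before four-parameter curve fitting.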

[2] = tested on: HEL
How it was run: as §1

[3] = tested on: HL-60
How it was run: as §1

[4] = tested on: K-562
How it was run: as §1

[5] = tested on: KCL-22
How it was run: as §1

[6] = tested on: KG-1
How it was run: as §1

[7] = tested on: KU-812
How it was run: as §1

[8] = tested on: LAMA-84
How it was run: as §1

[9] = tested on: ML-2
How it was run: as §1

[10] = tested on: MOLM-13
How it was run: as §1

[11] = tested on: MV4-11
How it was run: as §1

[12] = tested on: Mono-Mac-6
How it was run: as §1

[13] = tested on: NOMO-1
How it was run: as §1

[14] = tested on: SHI-1
How it was run: as §1

[15] = tested on: THP-1
How it was run: as §1

[16] = tested on: BV-173; assay: cell viability (% survival relative to DMSO control, bortezomib = 0%); higher = less cytotoxic
How it was run: (§2)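 In 384-well plates pre-printed with compounds at 1, 10, 100, 1000 or 10000 nM, duplicate wells received cells from 10 AML and 5 CML lines at densities within the linear growth range. The plates stayed at 37 °C with 5% CO2 for 72 h before CellTiter-Glo luminescence was recorded. Each entry is averaged percent survival. Scaling placed vehicle at 100% and a 10 µM positive control at 0%.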

[17] = tested on: HEL; assay: as above
How it was run: as §2

[18] = tested on: HL-60; assay: as above
How it was run: as §2

[19] = tested on: KCL-22; assay: as above
How it was run: as §2

[20] = tested on: KG-1; assay: as above
How it was run: as §2

[21] = tested on: KU-812; assay: as above
How it was run: as §2

[22] = tested on: LAMA-84; assay: as above
How it was run: as §2

[23] = tested on: ML-2; assay: as above
How it was run: as §2

[24] = tested on: MOLM-13; assay: as above
How it was run: as §2

[25] = tested on: MV4-11; assay: as above
How it was run: as §2

[26] = tested on: Mono-Mac-6; assay: as above
How it was run: as §2

[27] = tested on: NOMO-1; assay: as above
How it was run: as §2

[28] = tested on: SHI-1; assay: as above
How it was run: as §2

[29] = tested on: THP-1; assay: as above
How it was run: as §2

[30] = tested on: HL-60; assay: area under dose-response curve (viability, 1 nM-10 uM) (fraction (0-1)); higher = more sensitive
How it was run: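 A rescreen of the full library used HL-60 cells in RPMI 1640 with 10% FBS on 384-well plates, run in duplicate at five tenfold concentrations (1–10,000 nM). Each screen included DMSO or 100 nM of one of three metabolic inhibitors and ran 72 h at 37 °C, 5% CO2. CellTiter-Glo viability was scaled between DMSO and 10 μM proteasome-inhibitor wells. Any area under the curve comes from four-parameter log-logistic fits with drc and PharmacoGx.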

O=C(O)c1cc(Cl)cc(Cl)c1O [3,5-Dichlorosalicylic Acid]
Details	IC50 (cell viability) [µM]
[1]	> 10
[2]	> 10
[3]	> 10
[4]	> 10
[5]	> 10
[6]	> 10
[7]	> 10
[8]	> 10
[9]	> 10
[10]	> 10
[11]	> 10
[12]	> 10
[13]	> 10
[14]	> 10
[15]	> 10

Details	area under dose-response curve, co-treatment: AZD3965 100 nM	area under dose-response curve, co-treatment: DMSO vehicle	area under dose-response curve, co-treatment: GSK2194069 100 nM	area under dose-response curve, co-treatment: pictilisib 100 nM	cell viability, 1 nM [%]	cell viability, 10 nM [%]	cell viability, 100 nM [%]	cell viability, 1000 nM [%]	cell viability, 10000 nM [%]
[16]	–	–	–	–	107	86.1	119	106	106
[17]	–	–	–	–	102	111	98.6	111	104
[18]	–	–	–	–	106	136	84.5	117	93.5
[19]	–	–	–	–	105	140	87	94.7	85.9
[20]	–	–	–	–	107	107	85.6	117	96.8
[21]	–	–	–	–	90.5	93.7	95.8	109	87.3
[22]	–	–	–	–	105	87.4	97.5	103	92
[23]	–	–	–	–	97.4	99.8	95.6	107	93.1
[24]	–	–	–	–	92	112	83.9	110	91.7
[25]	–	–	–	–	96	106	91.3	104	88.3
[26]	–	–	–	–	106	102	93.7	107	89.7
[27]	–	–	–	–	93.9	94.9	88.1	105	98.7
[28]	–	–	–	–	110	105	98.4	111	90
[29]	–	–	–	–	95.3	93.3	87.7	96.7	98.8
[30]	< 0.0301	< 0.0301	< 0.0301	< 0.0301	–	–	–	–	–

From the supplement of paper PMC8671470
